Biological target: T1, α-D-mannosidase (from jack bean) (Canavalia ensiformis, UniProt C0HJB3)
T1 sequence (C0HJB3 1-981): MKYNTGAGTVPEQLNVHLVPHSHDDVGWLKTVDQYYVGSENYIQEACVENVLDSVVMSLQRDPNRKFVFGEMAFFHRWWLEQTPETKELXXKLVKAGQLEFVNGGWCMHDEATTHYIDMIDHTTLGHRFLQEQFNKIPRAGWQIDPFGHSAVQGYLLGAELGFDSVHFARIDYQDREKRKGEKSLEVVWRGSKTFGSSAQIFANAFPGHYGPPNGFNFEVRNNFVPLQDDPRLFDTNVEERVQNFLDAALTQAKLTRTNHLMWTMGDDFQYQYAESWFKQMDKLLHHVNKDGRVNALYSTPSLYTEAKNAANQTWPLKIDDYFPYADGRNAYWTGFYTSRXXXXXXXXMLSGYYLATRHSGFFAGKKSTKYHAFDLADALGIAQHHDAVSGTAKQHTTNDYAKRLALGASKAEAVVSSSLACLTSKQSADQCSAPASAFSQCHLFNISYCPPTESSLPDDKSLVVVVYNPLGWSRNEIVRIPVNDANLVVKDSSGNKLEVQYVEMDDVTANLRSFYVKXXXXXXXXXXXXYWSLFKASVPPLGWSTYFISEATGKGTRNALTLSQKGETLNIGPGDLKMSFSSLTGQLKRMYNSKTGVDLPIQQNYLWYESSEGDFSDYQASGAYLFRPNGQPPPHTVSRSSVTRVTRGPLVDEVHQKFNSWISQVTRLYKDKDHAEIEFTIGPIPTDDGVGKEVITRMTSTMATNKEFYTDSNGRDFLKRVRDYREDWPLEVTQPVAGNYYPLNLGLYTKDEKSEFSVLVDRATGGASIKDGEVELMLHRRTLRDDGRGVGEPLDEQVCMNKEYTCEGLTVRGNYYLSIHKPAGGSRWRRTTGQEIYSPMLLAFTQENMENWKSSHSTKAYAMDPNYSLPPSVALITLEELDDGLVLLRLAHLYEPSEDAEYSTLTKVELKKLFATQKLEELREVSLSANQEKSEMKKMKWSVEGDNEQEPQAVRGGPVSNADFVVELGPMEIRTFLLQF
Experiment: α-mannosidase inhibition (Test Example 5)
Type: biochemical
Settings: for IC50: α-D-mannosidase from jack bean, substrate p-nitrophenyl-α-D-mannoside, sodium acetate buffer pH 4.5, read-out: 50% inhibiory concentration (IC50) Enzyme G (converted); for inhibition of α-D-mannosidase, in words: summary of Table 1
Description: Thus, 0.5 mL of 0.025M citrate-phosphate buffer (pH 4.0), 0.1 mL of the same buffer containing 10 mM p-nitro-phenyl-N-acetyl-α-D-galactosaminide dissolved therein, and 0.1 mL of either water or an aqueous solution containing as the test compound any one of the compounds of the formulae (I), (V) and (X) according to this invention were mixed with each other and pre-incubated in a 96-wells titer plate at 37° C. for 10 minutes. After the completion of the pre-incubation, to the pre-incubated mixture was added 0.01 mL of 0.025 M citrate-phosphate buffer containing α-N-acetyl-galactosaminidase originated from chicken liver (a product of Sigma Company) which was dissolved in said buffer as a glycosidase to be tested. Thereafter, the enzymatic reaction was conducted at 37° C. for 30 minutes.
After the enzymatic reaction, to the reaction solution was added 1.0 mL of 0.3M glycine—sodium hydroxide buffer (pH 10.5), in order to terminate the enzymatic reaction. Thereafter, the absorbance [designated as value (a)] of light at 405 nm of the resulting reaction solution was measured. Concurrently, measurement was made of the absorbance [designated as value (b)] at 405 nm of the reaction solution as obtained in the control test where the enzymatic reaction was conducted without addition of the test compound. Further, measurements were made of the absorbance [designated as values (a′)] and the absorbance [[designated as values (b′)] at 405 nm of the solutions as obtained in the blank test and the control test, respectively, where the enzymatic reaction was not conducted in the assay test. The rate of inhibition to […] was calculated by the equation: [1-(a-a′)/(b-b′)]×100.
The test results obtained are summarized as IC50 value in Table 1 below.
This Test Example is a test example for determining the α-mannosidase or β-mannosidase-inhibitory activity of the compounds according to this invention.
The evaluation of the β-mannosidase-inhibitory activity was conducted according to a modification of the method described in the “Journal of Biological Chemistry”, 242, p.5474 (1967).
Namely, the test was conducted in the same manner as the test for the enzyme-inhibitory activity test described in Test Example 1, but with using α-mannosidase from jack bean or β-mannosidase from snail (both enzymes are products of Sigma Company) as the glycosidase enzyme, with using 0.05 M sodium acetate—acetate buffer (pH 4.5) as the buffer, and with using p-nitrophenyl-α-D-mannoside or p-nitrophenyl-β-D-mannoside as the substrate. Furthermore, absorbances of light were measured in the same manner as in Test Example 1. IC50 values of the test compound capable of giving the 50% inhibition to the enzymes were calculated.

## O=C(N[C@H]1NC[C@H](CO)[C@H](O)[C@@H]1O)C(F)(F)F [Formula (I), 6-deacetamido-3-decarboxy-3-hydroxymethyl-6-trifluoroacetamido-siastain B]
  IC50: > 387 µM

## CC(=O)NC1NCC(CO)C(O)C1O (stereo not drawn) [Formula (V), 3-decarboxy-4-epi-3-hydroxymethyl-siastain B]
  inhibition of α-D-mannosidase, in words: inhibit strongly
  IC50: 318 µM

## O=C(N[C@H]1NC[C@H](CO)[C@@H](O)[C@@H]1O)C(F)(F)F [Formula (X), 6-deacetamido-3-decarboxy-4-epi-3-hydroxymethyl-6-trifluoroacetamido-siastain B]
  inhibition of α-D-mannosidase, in words: inhibit strongly
  IC50: 2.9 µM
